Holding throughout (assay type): biochemical
Test [1] deals with T1, Ret (Homo sapiens, UniProt P07949).
T1 construct: P1378.pET-SF BI-PTP RET H661-R1012 HIS; made in house
T1 sequence (P07949 with tags, fused parts or gaps): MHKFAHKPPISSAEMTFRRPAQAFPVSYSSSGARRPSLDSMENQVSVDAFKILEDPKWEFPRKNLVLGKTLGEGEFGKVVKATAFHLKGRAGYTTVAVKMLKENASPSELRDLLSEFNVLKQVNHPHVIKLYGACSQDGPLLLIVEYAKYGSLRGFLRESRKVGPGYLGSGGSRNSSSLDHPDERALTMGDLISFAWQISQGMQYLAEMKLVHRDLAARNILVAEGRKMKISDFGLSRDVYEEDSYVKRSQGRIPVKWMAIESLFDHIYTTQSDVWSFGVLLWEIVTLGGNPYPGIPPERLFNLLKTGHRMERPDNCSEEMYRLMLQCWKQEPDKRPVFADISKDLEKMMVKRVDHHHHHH
In words: AlphaScreen kinase assay, Ret. The note with it: read-out: IC50, activity toward kinase Ret. (Bead proximity is the source of the signal in Alpha formats.)

For test [2], the target named is T2, B-Raf V600E (Homo sapiens, UniProt P15056, V600E).
T2 construct: P4254. pFastBacBD-CDC37 BRAF D437-K722-X, V600E; His6 with pFastBac HT leader (TEV site) (N); made in house; host or cells: Sf9 (baculovirus; chaperone CDC37 co-expressed)
T2 sequence (P15056 with tags, fused parts or gaps V600E): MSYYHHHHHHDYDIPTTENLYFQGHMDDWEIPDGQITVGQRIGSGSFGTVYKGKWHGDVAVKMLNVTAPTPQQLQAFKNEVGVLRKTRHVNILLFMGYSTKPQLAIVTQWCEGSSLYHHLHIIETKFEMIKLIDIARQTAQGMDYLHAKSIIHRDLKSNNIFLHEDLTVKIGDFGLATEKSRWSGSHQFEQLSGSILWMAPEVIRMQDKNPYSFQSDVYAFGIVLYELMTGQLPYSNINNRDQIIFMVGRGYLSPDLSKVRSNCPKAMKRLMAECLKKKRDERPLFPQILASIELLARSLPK
In words: AlphaScreen kinase assay, B-Raf V600E. The following applies: read-out: IC50, activity toward kinase B-Raf V600E.

The target of test [3] is T3, FGFR1 (Homo sapiens, UniProt P11362, C488A/C584S).
T3 construct: P1351.pET N6 BI-PTP FGFR A458-E765-X C488A, C584S; made in house; host or cells: E. coli (PTP1B co-expressed)
T3 sequence (P11362 458-765 C488A/C584S): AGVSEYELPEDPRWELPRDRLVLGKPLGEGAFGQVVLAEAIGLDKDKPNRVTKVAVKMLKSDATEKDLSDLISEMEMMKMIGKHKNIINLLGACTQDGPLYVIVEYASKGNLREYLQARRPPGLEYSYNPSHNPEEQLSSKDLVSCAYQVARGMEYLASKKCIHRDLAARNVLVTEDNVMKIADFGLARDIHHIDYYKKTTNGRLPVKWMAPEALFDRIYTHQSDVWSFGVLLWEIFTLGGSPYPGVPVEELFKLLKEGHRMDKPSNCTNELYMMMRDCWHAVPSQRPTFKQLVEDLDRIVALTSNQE
In words: AlphaScreen kinase assay, FGFR1. The following applies: read-out: IC50, activity toward kinase FGFR.

For test [4], the target named is T4, Kit (Homo sapiens, UniProt P10721).
T4 construct: P1332.N6 BI PTP KIT M552-K948-X COD; His6 (N); made in house; host or cells: E. coli (PTP1B co-expressed)
T4 sequence (P10721 with tags, fused parts or gaps): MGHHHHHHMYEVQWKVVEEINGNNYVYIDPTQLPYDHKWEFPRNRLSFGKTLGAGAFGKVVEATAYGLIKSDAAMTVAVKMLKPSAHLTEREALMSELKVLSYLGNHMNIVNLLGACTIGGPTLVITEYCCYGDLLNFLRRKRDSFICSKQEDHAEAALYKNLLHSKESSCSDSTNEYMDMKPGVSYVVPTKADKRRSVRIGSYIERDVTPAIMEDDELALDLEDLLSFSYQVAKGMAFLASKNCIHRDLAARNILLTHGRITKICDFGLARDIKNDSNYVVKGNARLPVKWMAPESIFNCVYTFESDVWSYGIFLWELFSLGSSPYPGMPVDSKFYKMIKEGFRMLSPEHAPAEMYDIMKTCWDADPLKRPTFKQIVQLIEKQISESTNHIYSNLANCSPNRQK
In words: AlphaScreen kinase assay, Kit. The note with it: read-out: IC50, activity toward kinase Kit.

We go through 51 compounds from patent US8415469B2, “Compounds and methods for kinase modulation, and indications therefor” (Plexxikon Inc., priority 2005, dated 2013).

Broadly, the IC50 is the concentration that inhibits the measured activity by half.

A value given as a limit tells only on which side of the number the result lay.

As for `CS(=O)(=O)Nc1cccc(-c2ccnc3[nH]cc(C(=O)c4cccc(Cl)c4Cl)c23)c1` [Compound P-0231], the IC50 in test [1] and in test [2] was ≤ 10 µM throughout. As for `O=C(c1cccc(Cl)c1Cl)c1c[nH]c2nccc(Cl)c12` [Compound P-0232], the IC50 in test [3] and in test [1] was ≤ 10 µM in each case. Take `O=C(c1ccccc1)c1c[nH]c2nccc([N+](=O)[O-])c12` [Compound P-0246]: the IC50 in test [3], in test [1] and in test [2] was ≤ 10 µM throughout. For `COc1cccc(C(=O)c2c[nH]c3ncc(Br)cc23)c1` [Compound P-0341], the IC50 in test [4], in test [3] and in test [1] was ≤ 10 µM each time.

Consider `O=C(c1c(F)cccc1F)c1c[nH]c2nccc(-c3cc(F)cc(F)c3)c12` [Compound P-0344], for which the IC50 in test [3], in test [1] and in test [2] was ≤ 10 µM in each case. In the case of `O=C(c1cccc(Cl)c1Cl)c1c[nH]c2nccc(-c3ccsc3)c12` [Compound P-0347], the IC50 in test [1] and in test [2] was ≤ 10 µM in each case. As for `COc1cccc(C(=O)c2c[nH]c3nccc(-c4cccc(NC(C)=O)c4)c23)c1` [Compound P-0363], the IC50 in test [3] and in test [1] was ≤ 10 µM in each case. On to `Clc1ccc(Cc2c[nH]c3ncc(-c4ccsc4)cc23)cn1` [Compound P-0385], for which the IC50 in test [4], in test [3] and in test [1] was ≤ 10 µM in each case.

For `COc1cccc(Cc2c[nH]c3ncc(-c4ccsc4)cc23)c1` [Compound P-0392], the IC50 in test [4], in test [3] and in test [1] was ≤ 10 µM in each case.

As for `O=C(c1ccccc1F)c1c[nH]c2nccc(-c3ccc(Cl)cc3)c12` [Compound P-0472], the IC50 in test [1] and in test [2] was ≤ 10 µM throughout. In the case of `COc1ccc(-c2ccnc3[nH]cc(C(=O)c4cccc(O)c4)c23)cn1` [Compound P-0520], the IC50 in test [3] and in test [1] was ≤ 10 µM throughout.

Take `O=C(c1ccccc1)c1c[nH]c2ncc(Br)cc12` [Compound P-0561]: the IC50 in test [4], in test [3] and in test [1] was ≤ 10 µM each time.

For the compound `O=C(c1cc(F)ccc1F)c1c[nH]c2nccc(-c3ccc(Cl)cc3)c12` [Compound P-0638], the IC50 in test [1] and in test [2] was ≤ 10 µM in each case. Consider `O=C(c1cc(Cl)ccc1F)c1c[nH]c2ncc(-c3cccs3)cc12` [Compound P-0644], for which the IC50 in test [4] and in test [1] was ≤ 10 µM in each case. Consider `O=C(c1cc(F)ccc1F)c1c[nH]c2ncc(-c3ccsc3)cc12` [Compound P-0699], for which the IC50 in test [4], in test [3] and in test [1] was ≤ 10 µM in each case. As to `O=C(c1ccccc1)c1c[nH]c2ncc(Br)c([N+](=O)[O-])c12` [Compound P-0736], the IC50 in test [4] and in test [1] was ≤ 10 µM throughout.

Regarding `COc1cccc(Cc2c[nH]c3nccc(-c4ccsc4)c23)n1` [Compound P-0810], the IC50 in test [4], in test [1] and in test [2] was ≤ 10 µM each time. In the case of `Cc1cc(C(=O)c2c[nH]c3ncc(-c4cccc(NS(C)(=O)=O)c4)cc23)n(C)n1` [Compound P-0825], the concentration for half-maximal inhibition (IC50) in test [4] and in test [1] was ≤ 10 µM each time. As for `Cc1cc(C(=O)c2c[nH]c3ncc(-c4cccnc4)cc23)no1` [Compound P-0826], the IC50 in test [3] and in test [1] was ≤ 10 µM in each case.

`Cc1ccc(F)cc1C(=O)c1c[nH]c2nccc(-c3cccc(C(N)=O)c3)c12` [Compound P-0976]: the IC50 in test [3], in test [1] and in test [2] was ≤ 10 µM throughout. Turning to `NC(=O)c1ccc(-c2cnc3[nH]cc(C(=O)c4cccc(Cl)c4Cl)c3c2)cc1` [Compound P-0977], the IC50 in test [3] and in test [1] was ≤ 10 µM in each case. For `Cc1cc(C(=O)c2c[nH]c3nccc(-c4ccc(C(N)=O)cc4)c23)no1` [Compound P-1007], the IC50 in test [1] and in test [2] was ≤ 10 µM throughout. On to `Cc1ccc(F)cc1C(=O)c1c[nH]c2nccc(-c3ccc(C(N)=O)cc3)c12` [Compound P-1024], for which the IC50 in test [1] and in test [2] was ≤ 10 µM each time. For `Cc1cc(C(=O)c2c[nH]c3nccc(-c4cccc(NS(C)(=O)=O)c4)c23)no1` [Compound P-1025], the IC50 in test [1] and in test [2] was ≤ 10 µM in each case. `Cc1cc(C(=O)c2c[nH]c3nccc(-c4ccsc4)c23)no1` [Compound P-1026]: the IC50 in test [1] and in test [2] was ≤ 10 µM each time. Turning to `Cc1cc(C(=O)c2c[nH]c3nccc(-c4cccnc4)c23)no1` [Compound P-1029], the IC50 in test [1] and in test [2] was ≤ 10 µM in each case. Take `Cc1cc(C(=O)c2c[nH]c3nccc(-c4cccc(S(C)(=O)=O)c4)c23)no1` [Compound P-1031]: the IC50 in test [1] and in test [2] was ≤ 10 µM each time. In the case of `O=C(c1ccc(Cl)cc1)c1c[nH]c2ncc(Br)cc12` [Compound P-1033], the IC50 in test [4] and in test [1] was ≤ 10 µM in each case. For `COc1cccc(C(=O)c2c[nH]c3nccc(-c4cccc(/C=C/C(=O)O)c4)c23)c1` [Compound P-1066], the IC50 in test [3] and in test [1] was ≤ 10 µM in each case. As to `CC(=O)Nc1cccc(-c2ccnc3[nH]cc(C(=O)c4cc(C)on4)c23)c1` [Compound P-1085], the IC50 in test [1] and in test [2] was ≤ 10 µM each time.

Regarding `O=C(c1cc(F)ccc1F)c1c[nH]c2ncc(-c3cccnc3)cc12` [Compound P-1111], the IC50 in test [3] and in test [1] was ≤ 10 µM in each case. In the case of `COc1ccc(-c2ccnc3[nH]cc(C(=O)c4cc(C)on4)c23)cn1` [Compound P-1113], the IC50 in test [1] and in test [2] was ≤ 10 µM each time. Take `COc1cccc(C(=O)c2c[nH]c3nccc(-c4cccnc4)c23)c1` [Compound P-1117]: the IC50 in test [1] and in test [2] was ≤ 10 µM in each case. With `COc1cccc(C(=O)c2c[nH]c3nccc(-c4cccc(S(C)(=O)=O)c4)c23)c1` [Compound P-1125], the IC50 in test [3] and in test [1] was ≤ 10 µM throughout. As to `Cc1ccc(F)cc1C(=O)c1c[nH]c2nccc(-c3cccc(S(C)(=O)=O)c3)c12` [Compound P-1129], the IC50 in test [1] was ≤ 10 µM.

On to `O=C(c1cccc(Cl)c1Cl)c1c[nH]c2nccc(-c3ccc(Cl)cc3)c12` [Compound P-1130], for which the IC50 in test [1] is ≤ 10 µM.

Turning to `Cc1ccc(F)cc1C(=O)c1c[nH]c2nccc(-c3ccc(Cl)cc3)c12` [Compound P-1133], the IC50 in test [1] is ≤ 10 µM.

`CS(=O)(=O)c1cccc(-c2ccnc3[nH]cc(C(=O)c4cccc(Cl)c4Cl)c23)c1` [Compound P-1134]: the IC50 in test [1] was ≤ 10 µM.

Regarding `Cc1ccc(F)cc1C(=O)c1c[nH]c2nccc(-c3cccc(N)c3)c12` [Compound P-1135], in test [1], the IC50 is ≤ 10 µM. With `Cc1cc(C(=O)c2c[nH]c3ncc(-c4cccc(/C=C/C(=O)O)c4)cc23)nn1C` [Compound P-1137], the IC50 in test [1] was ≤ 10 µM.

In the case of `Cc1cc(C(=O)c2c[nH]c3nccc(-c4ccc(Cl)cc4)c23)no1` [Compound P-1178], the IC50 in test [1] was ≤ 10 µM. Still for that read-out and setting: then `COc1cccc(C(=O)c2c[nH]c3nccc(-c4cccc(NS(C)(=O)=O)c4)c23)c1` [Compound P-1185], with ≤ 10 µM. `COc1cccc(C(=O)c2c[nH]c3nccc(-c4ccsc4)c23)c1` [Compound P-1188]: the IC50 in test [3] and in test [1] was ≤ 10 µM throughout.

Regarding `Cc1ccc(F)cc1C(=O)c1c[nH]c2nccc(-c3ccsc3)c12` [Compound P-1189], the IC50 in test [1] is ≤ 10 µM. As to `COc1cccc(C(=O)c2c[nH]c3nccc(-c4ccc(Cl)cc4)c23)c1` [Compound P-1191], the IC50 in test [1] was ≤ 10 µM. On to `COc1ccc(-c2ccnc3[nH]cc(C(=O)c4cc(F)ccc4C)c23)cn1` [Compound P-1192], for which the IC50 in test [1] is ≤ 10 µM. Still for that read-out and setting: then `O=C(c1ccccc1)c1c[nH]c2ncc(-c3ccsc3)cc12` [Compound P-1193], with ≤ 10 µM. Same read-out and setting: then `Cc1cc(C(=O)c2c[nH]c3nccc(-c4ccc(Cl)cc4)c23)n(C)n1` [Compound P-1196], with ≤ 10 µM; and `CS(=O)(=O)c1cccc(-c2ccnc3[nH]cc(C(=O)c4ccc(Cl)cc4)c23)c1` [Compound P-1198], with ≤ 10 µM; and `Cc1ccccc1C(=O)c1c[nH]c2nccc(-c3cccc(S(C)(=O)=O)c3)c12` [Compound P-1200], with ≤ 10 µM. With `Cc1ccccc1C(=O)c1c[nH]c2nccc(-c3ccc(Cl)cc3)c12` [Compound P-1201], in test [1], the IC50 was ≤ 10 µM.
